Source: the supplement of paper PMC10307832

Legend:
Assay in all cases: relative viability (nuclei count vs DMSO), 5 days (fraction); higher = more cells survive
CX-5461 + Phenformin = compound: Cc1cnc(CNC(=O)c2c(=O)c3ccc(N4CCCN(C)CC4)nc3n3c2sc2ccccc23)cn1 [CX-5461] + N=C(N)NC(=N)NCCc1ccccc1 [Phenformin] (partner 250 µM)
Procedure, shortened: (§1)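 Relative viability divides the nuclei count in treated wells by that in vehicle wells. Lung cancer cell lines were seeded in 1536-well plates, dosed by pin tool the next day, and fixed and stained after 5 days in one step with final 0.05% Triton X-100, 1% formaldehyde and 1 ug/ml Hoechst. Dosing was a single drug or a fixed anchor-drug dose plus five library-drug doses (not always all listed) in √10 steps, and values are medians of duplicate plates imaged at 4×.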

IMD-0354 + Lapatinib = compound: O=C(Nc1cc(C(F)(F)F)cc(C(F)(F)F)c1)c1cc(Cl)ccc1O [IMD-0354] + CS(=O)(=O)CCNCc1ccc(-c2ccc3ncnc(Nc4ccc(OCc5cccc(F)c5)c(Cl)c4)c3c2)o1 [Lapatinib] (partner 2 µM)
Procedure, shortened: as §1

CX-5461 + Vorinostat = compound: Cc1cnc(CNC(=O)c2c(=O)c3ccc(N4CCCN(C)CC4)nc3n3c2sc2ccccc23)cn1 [CX-5461] + O=C(CCCCCCC(=O)Nc1ccccc1)NO [Vorinostat] (partner 1 µM)
Procedure, shortened: as §1

IMD-0354 + Vorinostat = compound: O=C(Nc1cc(C(F)(F)F)cc(C(F)(F)F)c1)c1cc(Cl)ccc1O [IMD-0354] + O=C(CCCCCCC(=O)Nc1ccccc1)NO [Vorinostat] (partner 1 µM)
Procedure, shortened: as §1

Cell Line	relative viability (CX-5461 + Phenformin; first compound 0.01 µM)	relative viability (CX-5461 + Phenformin; first compound 0.03162 µM)	relative viability (CX-5461 + Phenformin; first compound 0.1 µM)	relative viability (CX-5461 + Phenformin; first compound 0.3162 µM)	relative viability (CX-5461 + Phenformin; first compound 1 µM)	relative viability (IMD-0354 + Lapatinib; first compound 0.04 µM)	relative viability (IMD-0354 + Lapatinib; first compound 0.1265 µM)	relative viability (IMD-0354 + Lapatinib; first compound 0.4 µM)	relative viability (IMD-0354 + Lapatinib; first compound 1.265 µM)	relative viability (IMD-0354 + Lapatinib; first compound 4 µM)	relative viability (CX-5461 + Vorinostat; first compound 0.01 µM)	relative viability (CX-5461 + Vorinostat; first compound 0.03162 µM)	relative viability (CX-5461 + Vorinostat; first compound 0.1 µM)	relative viability (CX-5461 + Vorinostat; first compound 0.3162 µM)	relative viability (CX-5461 + Vorinostat; first compound 1 µM)	relative viability (IMD-0354 + Vorinostat; first compound 0.04 µM)	relative viability (IMD-0354 + Vorinostat; first compound 0.1265 µM)	relative viability (IMD-0354 + Vorinostat; first compound 0.4 µM)	relative viability (IMD-0354 + Vorinostat; first compound 1.265 µM)	relative viability (IMD-0354 + Vorinostat; first compound 4 µM)
NCI-H1755	0.603	0.637	0.615	0.56	0.493	1.31	1.1	0.598	0.303	0.197	0.806	0.793	0.735	0.722	0.667	0.829	0.781	0.59	0.408	0.225
HCC-78	0.729	0.66	0.764	0.783	0.55	1.16	0.889	0.729	0.0878	0.234	0.405	0.477	0.459	0.402	0.42	0.406	0.378	0.405	0.407	0.31
IA-LM						0.628	0.743	0.412	0.285	0.235	1	0.925	1.11	0.828	1.01	0.89	0.737	0.397	1.11	0.681
NCI-H322M	0.821	0.945	0.818	0.473	0.521	0.651	0.584	0.57	0.802	0.342	0.894	0.802	0.9	0.569	0.743	0.901	0.891	0.48	0.42	0.537
NCI-H3122	0.385	0.343	0.316	0.378	0.248	1.05	0.983	0.747	0.202	0.211	1.02	1.02	1.12	1.07	0.967	1.04	0.936	0.622	0.3	0.132
SK-LU-1	0.615	0.545	0.397		0.229	1.07	0.851	0.376	0.47	0.27	0.826	0.721	0.777	0.777	0.538	0.796	0.597	0.623	0.194	0.264
COR-L23	0.472	0.431	0.414	0.426	0.301	1.09	0.831	0.439	0.117	0.172	0.612	0.436	0.451	0.389	0.218	0.419	0.466	0.403	0.0935	0.149
NCI-H2087	0.411	0.406	0.398	0.316	0.32	0.872	0.991	0.419	0.137	0.178	0.625	0.709	0.754	0.696	0.527	0.806	0.837	0.2	0.0721	0.0731
LC-2-ad	0.618	0.627	0.564	0.398	0.442	0.947	0.924	0.354	0.192	0.116	0.732	0.768	0.716	0.659	0.491	0.732	0.691	0.394	0.193	0.169
NCI-H1915	0.375	0.364	0.376	0.32	0.31	0.869	0.941	0.605	0.761	0.192	0.554	0.567	0.503	0.427	0.482	0.496	0.509	0.339	0.334	0.115
NCI-H1792	0.387	0.198	0.114	0.401	0.111	0.827	0.967	0.833	0.479	0.299										
ChaGo-K-1	0.512	0.527	0.474	0.299	0.268						0.786	0.81	0.699	0.262	0.513	0.851	0.741	0.519	0.244	0.255
NCI-H522	0.653	0.614	0.654		0.593						1	1.1	0.955		0.852	1.02	0.865	0.637	0.757	0.449
NCI-H1299						0.844	0.964	0.462	0.221	0.185										
NCI-H1648											0.526	0.355	0.49	0.495	0.483	0.303	0.694	0.289	0.617	0.3
NCI-H2342	0.645	0.53	0.535	0.675	0.586						0.686	0.768	0.642	0.619	0.776	0.769	0.853	0.53	0.697	0.364
SW 900	0.656	0.641	0.743	0.532	0.209						0.446	0.586		0.637	0.359	0.496	0.554	0.243	0.227	0.265
A549	0.155	0.165	0.104	0.0393	0.0272	1.19	1.04	0.245	0.101	0.105										
NCI-H1563	0.663	0.677	0.531	0.627	0.457	1.18	1.01	0.903	0.44	0.415										
LCLC-103H	0.377	0.349	0.326	0.364	0.297						0.784	0.855	0.827	0.517	0.741	0.79	0.706	0.539	0.364	0.287
NCI-H441	0.758	1.05	0.779	0.86	0.305						0.538	0.984	0.707	0.618	0.556	0.971	0.82	0.416	0.246	0.236
